We go through 1 compound from patent US12708676B2, “Phosphate compounds for detecting neurological disorders” (Amydis, Inc., priority 2018, dated 2026).

Where two headings read alike, the source gives them in different places.

This data set can be described thus: Rabbit pharmacokinetics of Compound 9, Study 2 (retina, brain, blood/plasma). It counts as in vivo. The settings on record: rabbit. The procedure: Compound 9 was injected into rabbits as a solution in 0.1 M phosphate buffer, pH 7.4 such that rabbits received either 30 mg of Compound 9 (Study 1) or 28 mg of Compound 9 (Study 2). The purpose of these studies was to confirm that Compound 9 could easily be converted into Compound 7 in vivo.
Study 2: The purpose of this study was to determine if higher concentrations of Compound 9 and/or Compound 7 was present at earlier time points in the tissues specified. Rabbits received a 1.4 mL injection of a 20 mg/mL solution of Compound 9 in 0.1 M phosphate buffer, pH 7.4. Blood was collected from rabbits (N=6) two minutes after receiving Compound 9 to determine the blood concentration at this time point (Table 8). Rabbits were then sacrificed at the specified time points (N=3 per time point) in the tables below and the average concentrations of Compound 9 and Compound 7 were determined in the retina (Table 6), brain (Table 7) and blood (Table 8).

The mark [1] stands for this setting: brain, other: injection (site or type of injection not stated), Study 2, 28 mg Compound 9 injected, read-out: Avg Conc., brain.
[2] abbreviates: plasma, other: injection (site not specified), Study 2, 28 mg Compound 9 injected, read-out: Avg Conc., plasma.
Setting [3] is: retina, other: injection (site not stated), Study 2, 28 mg Compound 9 injected, read-out: Avg Conc., retina.

As for `N#C/C(=C\c1ccc2cc(N3CCCCC3)ccc2c1)C(=O)NCCOCCOCCO` [Compound 7, (E)-2-cyano-N-(2-(2-(2-hydroxyethoxy)ethoxy)ethyl)-3-(6-(piperidin-1-yl)naphthalen-2-yl)acrylamide], the concentration at 5 min under setting [1] was determined as 316 ± 91.6 ng/g; the concentration at 5 min under setting [2] was 975 ± 317 ng/mL; the concentration at 5 min under setting [3] is 682 ± 119 ng/g; the concentration at 5 min (retina, Study 2, 28 mg Compound 9 injected, read-out: Avg Conc., retina) amounted to 682 ng/g. For the same compound, the concentration at 10 min under setting [1] came out at 68.1 ± 8.86 ng/g, the concentration at 10 min under setting [2] came to 251 ± 13.9 ng/mL and the concentration at 10 min under setting [3] worked out at 183 ± 152 ng/g. Besides, under “plasma, other: injection (site not specified), Study 2, 28 mg Compound 9 injected, 2 min, read-out: Avg Conc., plasma”, the concentration at 2 min came out at 1480 ± 409 ng/mL. Also, the “Time at which Kp,brain was highest” value (post-dose of Compound 9) worked out at 5 min. In addition, where the note is “via administration of Compound 9 diammonium salt”, the “Delivery past the blood brain barrier and into retinal tissue” value was “delivered past the blood brain barrier (BBB) and, more importantly, into retinal tissue”.
